Source: the NIST ThermoML archive (doi:10.1016/j.jct.2016.04.014)
± gives the expanded uncertainty stated by the source.

Conditions: Liquid, Vibrating tube method

CCO [ethanol]
Conditions	mass density [kg/m3]
288.15 K, 100 kPa	793.7 ± 1.7
288.15 K, 1000 kPa	794.4 ± 1.7
288.15 K, 5000 kPa	797.6 ± 1.7
288.15 K, 10000 kPa	801.5 ± 1.7
288.15 K, 15000 kPa	805.3 ± 1.7
288.15 K, 20000 kPa	808.9 ± 1.7
288.15 K, 25000 kPa	812.4 ± 1.7
288.15 K, 30000 kPa	815.7 ± 1.7
288.15 K, 35000 kPa	819 ± 1.7
288.15 K, 40000 kPa	822.1 ± 1.7
288.15 K, 45000 kPa	825.1 ± 1.7
288.15 K, 50000 kPa	828 ± 1.7
288.15 K, 55000 kPa	830.7 ± 1.8
288.15 K, 60000 kPa	833.3 ± 1.8
293.15 K, 100 kPa	789.4 ± 1.7
293.15 K, 1000 kPa	790.2 ± 1.7
293.15 K, 5000 kPa	793.5 ± 1.7
293.15 K, 10000 kPa	797.4 ± 1.7
293.15 K, 15000 kPa	801.3 ± 1.7
293.15 K, 20000 kPa	805 ± 1.7
293.15 K, 25000 kPa	808.6 ± 1.7
293.15 K, 30000 kPa	812 ± 1.7
293.15 K, 35000 kPa	815.3 ± 1.7
293.15 K, 40000 kPa	818.5 ± 1.7
293.15 K, 45000 kPa	821.5 ± 1.7
293.15 K, 50000 kPa	824.5 ± 1.7
293.15 K, 55000 kPa	827.2 ± 1.8
293.15 K, 60000 kPa	829.9 ± 1.8
298.15 K, 100 kPa	785.2 ± 1.7
298.15 K, 1000 kPa	785.9 ± 1.7
298.15 K, 5000 kPa	789.3 ± 1.7
298.15 K, 10000 kPa	793.4 ± 1.7
298.15 K, 15000 kPa	797.3 ± 1.7
298.15 K, 20000 kPa	801.1 ± 1.7
298.15 K, 25000 kPa	804.8 ± 1.7
298.15 K, 30000 kPa	808.3 ± 1.7
298.15 K, 35000 kPa	811.7 ± 1.7
298.15 K, 40000 kPa	814.9 ± 1.7
298.15 K, 45000 kPa	818 ± 1.7
298.15 K, 50000 kPa	821 ± 1.8
298.15 K, 55000 kPa	823.8 ± 1.8
298.15 K, 60000 kPa	826.5 ± 1.8
303.15 K, 100 kPa	780.9 ± 1.7
303.15 K, 101 kPa	780.83 ± 0.15
303.15 K, 1000 kPa	781.6 ± 1.7
303.15 K, 5000 kPa	785.1 ± 1.7
303.15 K, 10000 kPa	789.3 ± 1.7
303.15 K, 15000 kPa	793.3 ± 1.7
303.15 K, 20000 kPa	797.2 ± 1.7
303.15 K, 25000 kPa	801 ± 1.7
303.15 K, 30000 kPa	804.6 ± 1.7
303.15 K, 35000 kPa	808 ± 1.7
303.15 K, 40000 kPa	811.3 ± 1.7
303.15 K, 45000 kPa	814.5 ± 1.7
303.15 K, 50000 kPa	817.5 ± 1.8
303.15 K, 55000 kPa	820.3 ± 1.8
303.15 K, 60000 kPa	823.1 ± 1.8
308.15 K, 100 kPa	776.5 ± 1.7
308.15 K, 1000 kPa	777.3 ± 1.7
308.15 K, 5000 kPa	780.9 ± 1.7
308.15 K, 10000 kPa	785.2 ± 1.7
308.15 K, 15000 kPa	789.3 ± 1.7
308.15 K, 20000 kPa	793.3 ± 1.7
308.15 K, 25000 kPa	797.1 ± 1.7
308.15 K, 30000 kPa	800.8 ± 1.7
308.15 K, 35000 kPa	804.3 ± 1.7
308.15 K, 40000 kPa	807.7 ± 1.7
308.15 K, 45000 kPa	810.9 ± 1.7
308.15 K, 50000 kPa	814 ± 1.8
308.15 K, 55000 kPa	816.9 ± 1.8
308.15 K, 60000 kPa	819.6 ± 1.8
313.15 K, 100 kPa	772.1 ± 1.7
313.15 K, 101 kPa	772.1 ± 0.15
313.15 K, 1000 kPa	773 ± 1.7
313.15 K, 5000 kPa	776.6 ± 1.7
313.15 K, 10000 kPa	781 ± 1.7
313.15 K, 15000 kPa	785.3 ± 1.7
313.15 K, 20000 kPa	789.4 ± 1.7
313.15 K, 25000 kPa	793.3 ± 1.7
313.15 K, 30000 kPa	797 ± 1.7
313.15 K, 35000 kPa	800.6 ± 1.7
313.15 K, 40000 kPa	804.1 ± 1.7
313.15 K, 45000 kPa	807.4 ± 1.7
313.15 K, 50000 kPa	810.5 ± 1.8
313.15 K, 55000 kPa	813.4 ± 1.8
313.15 K, 60000 kPa	816.2 ± 1.8
318.15 K, 100 kPa	767.7 ± 1.7
318.15 K, 1000 kPa	768.5 ± 1.7
318.15 K, 5000 kPa	772.3 ± 1.7
318.15 K, 10000 kPa	776.8 ± 1.7
318.15 K, 15000 kPa	781.2 ± 1.7
318.15 K, 20000 kPa	785.4 ± 1.7
318.15 K, 25000 kPa	789.4 ± 1.7
318.15 K, 30000 kPa	793.2 ± 1.7
318.15 K, 35000 kPa	796.9 ± 1.7
318.15 K, 40000 kPa	800.4 ± 1.7
318.15 K, 45000 kPa	803.8 ± 1.8
318.15 K, 50000 kPa	806.9 ± 1.8
318.15 K, 55000 kPa	809.9 ± 1.8
318.15 K, 60000 kPa	812.8 ± 1.8
323.15 K, 100 kPa	763.2 ± 1.7
323.15 K, 101 kPa	763.22 ± 0.15
323.15 K, 1000 kPa	764.1 ± 1.7
323.15 K, 5000 kPa	768 ± 1.7
323.15 K, 10000 kPa	772.6 ± 1.7
323.15 K, 15000 kPa	777.1 ± 1.7
323.15 K, 20000 kPa	781.4 ± 1.7
323.15 K, 25000 kPa	785.5 ± 1.7
323.15 K, 30000 kPa	789.4 ± 1.7
323.15 K, 35000 kPa	793.2 ± 1.7
323.15 K, 40000 kPa	796.8 ± 1.7
323.15 K, 45000 kPa	800.2 ± 1.8
323.15 K, 50000 kPa	803.4 ± 1.8
323.15 K, 55000 kPa	806.5 ± 1.8
323.15 K, 60000 kPa	809.3 ± 1.8
328.15 K, 100 kPa	758.7 ± 1.7
328.15 K, 1000 kPa	759.6 ± 1.7
328.15 K, 5000 kPa	763.6 ± 1.7
328.15 K, 10000 kPa	768.3 ± 1.7
328.15 K, 15000 kPa	772.9 ± 1.7
328.15 K, 20000 kPa	777.3 ± 1.7
328.15 K, 25000 kPa	781.6 ± 1.7
328.15 K, 30000 kPa	785.6 ± 1.7
328.15 K, 35000 kPa	789.5 ± 1.7
328.15 K, 40000 kPa	793.1 ± 1.7
328.15 K, 45000 kPa	796.6 ± 1.8
328.15 K, 50000 kPa	799.9 ± 1.8
328.15 K, 55000 kPa	803 ± 1.8
328.15 K, 60000 kPa	805.9 ± 1.8
333.15 K, 100 kPa	754.1 ± 1.7
333.15 K, 1000 kPa	755 ± 1.7
333.15 K, 5000 kPa	759.1 ± 1.7
333.15 K, 10000 kPa	764 ± 1.7
333.15 K, 15000 kPa	768.8 ± 1.7
333.15 K, 20000 kPa	773.3 ± 1.7
333.15 K, 25000 kPa	777.6 ± 1.7
333.15 K, 30000 kPa	781.7 ± 1.7
333.15 K, 35000 kPa	785.7 ± 1.7
333.15 K, 40000 kPa	789.4 ± 1.7
333.15 K, 45000 kPa	792.9 ± 1.8
333.15 K, 50000 kPa	796.3 ± 1.8
333.15 K, 55000 kPa	799.4 ± 1.8
333.15 K, 60000 kPa	802.4 ± 1.8
343.15 K, 100 kPa	744.6 ± 1.7
343.15 K, 1000 kPa	745.6 ± 1.7
343.15 K, 5000 kPa	750 ± 1.7
343.15 K, 10000 kPa	755.2 ± 1.7
343.15 K, 15000 kPa	760.2 ± 1.7
343.15 K, 20000 kPa	765 ± 1.7
343.15 K, 25000 kPa	769.6 ± 1.7
343.15 K, 30000 kPa	773.9 ± 1.7
343.15 K, 35000 kPa	778 ± 1.7
343.15 K, 40000 kPa	781.9 ± 1.8
343.15 K, 45000 kPa	785.6 ± 1.8
343.15 K, 50000 kPa	789.1 ± 1.8
343.15 K, 55000 kPa	792.3 ± 1.8
343.15 K, 60000 kPa	795.3 ± 1.8
353.15 K, 1000 kPa	736 ± 1.7
353.15 K, 5000 kPa	740.6 ± 1.7
353.15 K, 10000 kPa	746.2 ± 1.7
353.15 K, 15000 kPa	751.5 ± 1.7
353.15 K, 20000 kPa	756.5 ± 1.7
353.15 K, 25000 kPa	761.3 ± 1.7
353.15 K, 30000 kPa	765.9 ± 1.7
353.15 K, 35000 kPa	770.2 ± 1.7
353.15 K, 40000 kPa	774.3 ± 1.8
353.15 K, 45000 kPa	778.1 ± 1.8
353.15 K, 50000 kPa	781.7 ± 1.8
353.15 K, 55000 kPa	785.1 ± 1.8
353.15 K, 60000 kPa	788.2 ± 1.8
363.15 K, 1000 kPa	725.9 ± 1.7
363.15 K, 5000 kPa	730.8 ± 1.7
363.15 K, 10000 kPa	736.7 ± 1.7
363.15 K, 15000 kPa	742.4 ± 1.7
363.15 K, 20000 kPa	747.7 ± 1.7
363.15 K, 25000 kPa	752.8 ± 1.7
363.15 K, 30000 kPa	757.7 ± 1.7
363.15 K, 35000 kPa	762.2 ± 1.8
363.15 K, 40000 kPa	766.5 ± 1.8
363.15 K, 45000 kPa	770.5 ± 1.8
363.15 K, 50000 kPa	774.3 ± 1.8
363.15 K, 55000 kPa	777.7 ± 1.8
363.15 K, 60000 kPa	780.9 ± 1.8
373.15 K, 1000 kPa	715.3 ± 2.7
373.15 K, 5000 kPa	720.6 ± 2.7
373.15 K, 10000 kPa	727 ± 2.7
373.15 K, 15000 kPa	733 ± 2.7
373.15 K, 20000 kPa	738.7 ± 2.7
373.15 K, 25000 kPa	744.2 ± 2.7
373.15 K, 30000 kPa	749.3 ± 2.7
373.15 K, 35000 kPa	754.1 ± 2.7
373.15 K, 40000 kPa	758.6 ± 2.7
373.15 K, 45000 kPa	762.8 ± 2.7
373.15 K, 50000 kPa	766.7 ± 2.8
373.15 K, 55000 kPa	770.2 ± 2.8
373.15 K, 60000 kPa	773.5 ± 2.8
393.15 K, 1000 kPa	692.2 ± 2.7
393.15 K, 5000 kPa	698.4 ± 2.7
393.15 K, 10000 kPa	705.8 ± 2.7
393.15 K, 15000 kPa	712.8 ± 2.7
393.15 K, 20000 kPa	719.4 ± 2.7
393.15 K, 25000 kPa	725.6 ± 2.7
393.15 K, 30000 kPa	731.4 ± 2.7
393.15 K, 35000 kPa	736.8 ± 2.7
393.15 K, 40000 kPa	741.8 ± 2.7
393.15 K, 45000 kPa	746.4 ± 2.8
393.15 K, 50000 kPa	750.7 ± 2.8
393.15 K, 55000 kPa	754.5 ± 2.8
393.15 K, 60000 kPa	757.9 ± 2.8
413.15 K, 1000 kPa	666.3 ± 2.7
413.15 K, 5000 kPa	673.6 ± 2.7
413.15 K, 10000 kPa	682.3 ± 2.7
413.15 K, 15000 kPa	690.5 ± 2.7
413.15 K, 20000 kPa	698.1 ± 2.7
413.15 K, 25000 kPa	705.3 ± 2.7
413.15 K, 30000 kPa	712 ± 2.7
413.15 K, 35000 kPa	718.2 ± 2.7
413.15 K, 40000 kPa	723.8 ± 2.8
413.15 K, 45000 kPa	729 ± 2.8
413.15 K, 50000 kPa	733.7 ± 2.8
413.15 K, 55000 kPa	737.9 ± 2.8
413.15 K, 60000 kPa	741.5 ± 2.8
